# Measurements as given in US20260306644A1, “ANTIBODY RECRUITING MOLECULES FOR THE TREATMENT OF CORONAVIRUS DISEASE-19” (priority 2023, published 2026).
# Values joined by “and” are separate entries in the source; they are usually repeats but may differ in a detail not shown here. Equal values may be shown once. Read-outs that look alike come from different tables or passages of the source. Positions of bridges follow the written chain, without caps; N, C: chain ends.
# Experiments:
# [1] = system: Spike RBD coated magnetic beads / RAW 264.7 macrophages; assay: Antibody-dependent cellular phagocytosis (ADCP), RAW 264.7 macrophages and Spike RBD coated magnetic beads, flow cytometry; type: cell-based; settings: 37° C., 2 hours, read-out: SARS-COV-2 ADCP EC50
# Protocol: The ability of the compounds to mediate antibody-dependent cellular phagocytosis (ADCP) was assessed using RAW 264.7 macrophages and Spike RBD coated magnetic beads (https://www.acrobiosystems.com/P3194-SARS-CoV-2-Spike-RBD-coupled-Magnetic-Beads.html). Spike RBD coated magnetic beads (3 ul per well) were added to each well of a round bottom 96-well plates. RAW264.7 cells (50,000 cells per well) were added to the beads. Next, the compounds were administered to predetermined final concentrations. The cell-bead mixtures were incubated at 37° C. for 2 hours. The mixtures were then analyzed by flow cytometry.
# [2] = biological target: SARS-CoV-2 Spike protein (Severe acute respiratory syndrome coronavirus 2, UniProt P0DTC2); assay: Ternary binding of SARS-CoV-2 Spike protein (293T cells expressing Spike-GFP, IgG-AF647, flow cytometry); type: cell-based; settings: IgG-AF647 10 μg/ml, repeat values/batches listed separately, read-out: SARS-CoV-2 Ternary binding EC50
# [3] = biological target: T1, SARS-CoV-2 Spike A (wild-type) (Severe acute respiratory syndrome coronavirus 2, UniProt P0DTC2); assay: MSD ACE2 competition assay (inhibition of Spike binding with ACE2, ECL), A (wild-type)
# T1 construct: purchased Meso Scale Diagnostics, LLC V-PLEX SARS-CoV-2 Panel 13 (ACE2) Kit / Panel 23 (ACE2) Kit
# [4] = 293T cells expressing Spike-GFP
# [5] = IC50 Wild Type, Wild Type Spike
compound,measurement,setting,value
Ac-DKEWILQKIYEIMRLLDELGHAEASMRVSDLIYEFMKKGDERLLEEAERLLEEVERGGGGGGGGDCAWHLGELVWCT-NH2 (disulfide 66-76) [Compound 142],EC50,[1],0.6 nM
same,EC50,[2]; [4],0.05 nM
same,IC50,[3]; [5],1.35 nM
Ac-DKEWILQKIYEIMRLLDELGHAEASMRVSDLIYEFMKKGDERLLEEAERLLEEVERGGDCAWHLGELVWCT-NH2 (disulfide 60-70) [Compound 145],EC50,[1],0.52 nM
same,EC50,[2]; [4],0.04 nM
same,IC50,[3]; [5],0.97 nM
Ac-DKEWILQKIYEIMRLLDELGHAEASMRVSDLIYEFMKKGDERLLEEAERLLEEVERPASPASPASPASDCAWHLGELVWCT (disulfide 70-80) [Compound 165],EC50,[1],0.07 nM
same,EC50,[2]; […],0.11 nM
same,IC50,[3]; [5],0.83 nM
Ac-DKEWILQKIYEIMRLLDELGHAEASMRVSDLIYEFMKKGDERLLEEAERLLEEVEREAAAKEAAAKDCAWHLGELVWCT-NH2 (disulfide 68-78) [Compound 146],EC50,[1],0.27 nM
same,EC50,[2]; […],0.02 nM
same,IC50,[3]; [5],1 nM
DKEWILQKIYEIMRLLDELGHAEASMRVSDLIYEFMKKGDERLLEEAERLLEEVERGQAPGQAPDCAWHLGELVWCT-NH2 (disulfide 66-76) [Compound 174],EC50,[1],0.044 nM
same,EC50,[2]; […],0.14 nM
same,IC50,[3]; [5],1.4 nM
DKEWILQKIYEIMRLLDELGHAEASMRVSDLIYEFMKKGDERLLEEAERLLEEVEREAAAKEAAAKDCAWHLGELVWCT-NH2 (disulfide 68-78) [Compound 173],EC50,[1],0.35 nM
same,EC50,[2]; […],0.04 nM
same,IC50,[3]; [5],1.21 nM
CC[C@H](C)[C@H](NC(=O)[C@H](CC(C)C)NC(=O)[C@H](CC(=O)O)NC(=O)[C@H](CO)NC(=O)[C@@H](NC(=O)[C@H](CCCNC(=N)N)NC(=O)[C@H](CCSC)NC(=O)[C@H](CO)NC(=O)[C@H](C)NC(=O)[C@H](CCC(=O)O)NC(=O)[C@H](C)NC(=O)[C@H](Cc1c[nH]cn1)NC(=O)CNC(=O)[C@H](CC(C)C)NC(=O)[C@H](CCC(=O)O)NC(=O)[C@H](CC(=O)O)NC(=O)[C@H](CC(C)C)NC(=O)[C@H](CC(C)C)NC(=O)[C@H](CCCNC(=N)N)NC(=O)[C@H](CCSC)NC(=O)[C@@H](NC(=O)[C@H](CCC(=O)O)NC(=O)[C@H](Cc1ccc(O)cc1)NC(=O)[C@@H](NC(=O)[C@H](CCCCN)NC(=O)[C@H](CCC(N)=O)NC(=O)[C@H](CC(C)C)NC(=O)[C@@H](NC(=O)[C@H](Cc1c[nH]c2ccccc12)NC(=O)[C@H](CCC(=O)O)NC(=O)[C@H](CCCCN)NC(=O)[C@H](CC(=O)O)NC(=O)[C@@H](CCC(=O)O)NC(=O)[C@@H]1CSCC(=O)N[C@@H](C)C(=O)N[C@@H](CO)C(=O)N[C@@H](Cc2ccc(O)cc2)C(=O)N[C@@H](Cc2c[nH]cn2)C(=O)N[C@@H](CC(C)C)C(=O)NCC(=O)N[C@@H](CCC(=O)O)C(=O)N[C@@H](CC(C)C)C(=O)N[C@@H](C(C)C)C(=O)N[C@@H](Cc2c[nH]c3ccccc23)C(=O)N2Cc3ccccc3C[C@H]2C(=O)NC(C)(C)C(=O)N1)[C@@H](C)CC)[C@@H](C)CC)[C@@H](C)CC)C(C)C)C(=O)N[C@@H](Cc1ccc(O)cc1)C(=O)N[C@@H](CCC(=O)O)C(=O)N[C@@H](Cc1ccccc1)C(=O)N[C@@H](CCSC)C(=O)N[C@@H](CCCCN)C(=O)N[C@@H](CCCCN)C(=O)NCC(=O)N[C@@H](CC(=O)O)C(=O)N[C@@H](CCC(=O)O)C(=O)N[C@@H](CCCNC(=N)N)C(=O)N[C@@H](CC(C)C)C(=O)N[C@@H](CC(C)C)C(=O)N[C@@H](CCC(=O)O)C(=O)N[C@@H](CCC(=O)O)C(=O)N[C@@H](C)C(=O)N[C@@H](CCC(=O)O)C(=O)N[C@@H](CCCNC(=N)N)C(=O)N[C@@H](CC(C)C)C(=O)N[C@@H](CC(C)C)C(=O)N[C@@H](CCC(=O)O)C(=O)N[C@@H](CCC(=O)O)C(=O)N[C@H](C(=O)N[C@@H](CCC(=O)O)C(=O)N[C@@H](CCCNC(=N)N)C(=O)O)C(C)C [Compound 130],EC50,[1],1.3 nM and 1.5 nM
Ac-DKEWILQKIYEIMRLLDELGHAEASMRVSDLIYEFMKKGDERLLEEAERLLEEVERGGGGGGDCAWHLGELVWCT-NH2 (disulfide 64-74) [Compound 143],EC50,[1],0.75 nM
same,EC50,[2]; [4],0.05 nM
same,IC50,[3]; [5],1.35 nM
CC[C@H](C)[C@H](NC(=O)[C@H](CC(C)C)NC(=O)[C@H](CC(=O)O)NC(=O)[C@H](CO)NC(=O)[C@@H](NC(=O)[C@H](CCCNC(=N)N)NC(=O)[C@H](CCSC)NC(=O)[C@H](CO)NC(=O)[C@H](C)NC(=O)[C@H](CCC(=O)O)NC(=O)[C@H](C)NC(=O)[C@H](Cc1c[nH]cn1)NC(=O)CNC(=O)[C@H](CC(C)C)NC(=O)[C@H](CCC(=O)O)NC(=O)[C@H](CC(=O)O)NC(=O)[C@H](CC(C)C)NC(=O)[C@H](CC(C)C)NC(=O)[C@H](CCCNC(=N)N)NC(=O)[C@H](CCSC)NC(=O)[C@@H](NC(=O)[C@H](CCC(=O)O)NC(=O)[C@H](Cc1ccc(O)cc1)NC(=O)[C@@H](NC(=O)[C@H](CCCCN)NC(=O)[C@H](CCC(N)=O)NC(=O)[C@H](CC(C)C)NC(=O)[C@@H](NC(=O)[C@H](Cc1c[nH]c2ccccc12)NC(=O)[C@H](CCC(=O)O)NC(=O)[C@H](CCCCN)NC(=O)[C@@H](N)CC(=O)O)[C@@H](C)CC)[C@@H](C)CC)[C@@H](C)CC)C(C)C)C(=O)N[C@@H](Cc1ccc(O)cc1)C(=O)N[C@@H](CCC(=O)O)C(=O)N[C@@H](Cc1ccccc1)C(=O)N[C@@H](CCSC)C(=O)N[C@@H](CCCCN)C(=O)N[C@@H](CCCCN)C(=O)N[C@@H](CC(=O)O)C(=O)N[C@H]1CSSC[C@@H](C(=O)N[C@H](C(=O)O)[C@@H](C)O)NC(=O)[C@H](Cc2c[nH]c3ccccc23)NC(=O)[C@H](C(C)C)NC(=O)[C@H](CC(C)C)NC(=O)[C@H](CCC(=O)O)NC(=O)CNC(=O)[C@H](CC(C)C)NC(=O)[C@H](Cc2c[nH]cn2)NC(=O)[C@H](Cc2c[nH]c3ccccc23)NC(=O)[C@H](C)NC1=O [Compound 115],EC50,[2]; [4],0.34 nM and 0.36 nM and 0.23 nM and 0.26 nM
same,IC50,[3]; [5],45.7 nM
"Ac-QKIYEIMRLCDELGHAEACMRVSDLIYEFMKKGDCAWHLGELVWCT-NH2 (disulfide 10-19, 35-45) [Compound 164]",EC50,[2]; [4],> 100 nM
same,IC50,"[3]; read-out: IC50 Wild Type, Wild Type Spike",> 10000 nM
CC[C@H](C)[C@H](NC(=O)[C@H](CC(C)C)NC(=O)[C@H](CC(=O)O)NC(=O)[C@H](CO)NC(=O)[C@@H](NC(=O)[C@H](CCCNC(=N)N)NC(=O)[C@H](CCSC)NC(=O)[C@H](CO)NC(=O)[C@H](C)NC(=O)[C@H](CCC(=O)O)NC(=O)[C@H](C)NC(=O)[C@H](Cc1c[nH]cn1)NC(=O)CNC(=O)[C@H](CC(C)C)NC(=O)[C@H](CCC(=O)O)NC(=O)[C@H](CC(=O)O)NC(=O)[C@H](CC(C)C)NC(=O)[C@H](CC(C)C)NC(=O)[C@H](CCCNC(=N)N)NC(=O)[C@H](CCSC)NC(=O)[C@@H](NC(=O)[C@H](CCC(=O)O)NC(=O)[C@H](Cc1ccc(O)cc1)NC(=O)[C@@H](NC(=O)[C@H](CCCCN)NC(=O)[C@H](CCC(N)=O)NC(=O)[C@H](CC(C)C)NC(=O)[C@@H](NC(=O)[C@H](Cc1c[nH]c2ccccc12)NC(=O)[C@H](CCC(=O)O)NC(=O)[C@H](CCCCN)NC(=O)[C@H](CC(=O)O)NC(C)=O)[C@@H](C)CC)[C@@H](C)CC)[C@@H](C)CC)C(C)C)C(=O)N[C@@H](Cc1ccc(O)cc1)C(=O)N[C@@H](CCC(=O)O)C(=O)N[C@@H](Cc1ccccc1)C(=O)N[C@@H](CCSC)C(=O)N[C@@H](CCCCN)C(=O)N[C@@H](CCCCN)C(=O)NCC(=O)O [Compound 103],EC50,[2]; [4],> 10 nM
same,IC50,[3]; [5],6.22 nM
CC[C@H](C)[C@H](NC(=O)[C@H](CC(C)C)NC(=O)[C@H](CC(=O)O)NC(=O)[C@H](CO)NC(=O)[C@@H](NC(=O)[C@H](CCCNC(=N)N)NC(=O)[C@H](CCSC)NC(=O)[C@H](CO)NC(=O)[C@H](C)NC(=O)[C@H](CCC(=O)O)NC(=O)[C@H](C)NC(=O)[C@H](Cc1c[nH]cn1)NC(=O)CNC(=O)[C@H](CC(C)C)NC(=O)[C@H](CCC(=O)O)NC(=O)[C@H](CC(=O)O)NC(=O)[C@H](CC(C)C)NC(=O)[C@H](CC(C)C)NC(=O)[C@H](CCCNC(=N)N)NC(=O)[C@H](CCSC)NC(=O)[C@@H](NC(=O)[C@H](CCC(=O)O)NC(=O)[C@H](Cc1ccc(O)cc1)NC(=O)[C@@H](NC(=O)[C@H](CCCCN)NC(=O)[C@H](CCC(N)=O)NC(=O)[C@H](CC(C)C)NC(=O)[C@@H](NC(=O)[C@H](Cc1c[nH]c2ccccc12)NC(=O)[C@H](CCC(=O)O)NC(=O)[C@H](CCCCN)NC(=O)[C@H](CC(=O)O)NC(C)=O)[C@@H](C)CC)[C@@H](C)CC)[C@@H](C)CC)C(C)C)C(=O)N[C@@H](Cc1ccc(O)cc1)C(=O)N[C@@H](CCC(=O)O)C(=O)N[C@@H](Cc1ccccc1)C(=O)N[C@@H](CCSC)C(=O)N[C@@H](CCCCN)C(=O)N[C@@H](CCCCN)C(=O)NCC(=O)N[C@@H](CC(=O)O)C(=O)N[C@@H](CCC(=O)O)C(=O)N[C@@H](CCCNC(=N)N)C(=O)N[C@@H](CC(C)C)C(=O)N[C@@H](CC(C)C)C(=O)N[C@@H](CCC(=O)O)C(=O)N[C@@H](CCC(=O)O)C(=O)N[C@@H](C)C(=O)N[C@@H](CCC(=O)O)C(=O)N[C@@H](CCCNC(=N)N)C(=O)N[C@@H](CC(C)C)C(=O)N[C@@H](CC(C)C)C(=O)N[C@@H](CCC(=O)O)C(=O)N[C@@H](CCC(=O)O)C(=O)N[C@H](C(=O)N[C@@H](CCC(=O)O)C(=O)N[C@@H](CCCNC(=N)N)C(=O)NCCOCCOCCOCCOCCOCCOCCOCCOCCC(=O)NCCOCCOCCOCCOCCOCCOCCOCCOCCC(=O)N[C@@H](CC(=O)O)C(=O)N[C@H]1CSSC[C@@H](C(=O)N[C@H](C(N)=O)[C@@H](C)O)NC(=O)[C@H](Cc2c[nH]c3ccccc23)NC(=O)[C@H](C(C)C)NC(=O)[C@H](CC(C)C)NC(=O)[C@H](CCC(=O)O)NC(=O)CNC(=O)[C@H](CC(C)C)NC(=O)[C@H](Cc2c[nH]cn2)NC(=O)[C@H](Cc2c[nH]c3ccccc23)NC(=O)[C@H](C)NC1=O)C(C)C [Compound 124],EC50,[1],0.43 nM
